This is an account of results in US11766434B2, “Pyrimidinone derivatives as CDC7 inhibitors” (Cancer Research Technology Limited, priority 2016, dated 2023).

For one assay, the target named is Cdc7/Dbf4 (Homo sapiens, UniProt O00311). Put plainly: Cdc7 biochemical assay Method 2: Cdc7/Dbf4 Enzyme TR-FRET Assay measuring pS40MCM2. The following applies: pS40 MCM2 peptide, 1 μM ATP, 25° C., 120 minutes, read-out: Biochemical Method 2 (pIC50) (converted). The procedure:
This protocol describes a method for assaying a compounds' ability to inhibit Cdc7 activity by measuring pS40MCM2 levels in a Cdc7/Dbf4 Enzyme TR-FRET Assay.
2.5 nM Cdc7/Dbf4 was incubated with 100 nM of biotin-labelled peptide 35-TDALTS(pS)PGRDLP in the presence of 1 μM ATP at 25° C. for 120 minutes. The phosphorylation of the peptide was detected using TR-FRET. Anti-Mcm2 (pS40) antibody, Terbium anti-rabbit secondary antibody and Streptavidin-Alexa Fluor488 form the detection system.

Assay [1] has as its target T1, Cdc7 (Homo sapiens, UniProt O00311). In words: Cdc7 cell pharmacodynamics assay Method 2: pS40MCM2 levels in HCT116 cells. The class given is cell-based. On the set-up: endogenous in cells. The following applies: 18 hours treatment, read-out: Biomarker Method 2 (pEC50) (converted). The source says:
This protocol describes a method to investigate the inhibition of Cdc7 activity by measuring pS40MCM2 levels in cells, after treatment with compounds.
• HCT116 cells (ATCC, #CCL-247) • McCoys 5A with L-glutamine (Cellgro, #10-050-CV) • 10% FCS (Cellgro, #35-010-CV) • D-PBS without CaCl2 and MgCl2 (Cellgro, #21-031-CV) • Trypsin/EDTA (Cellgro, #25-052-CL) • BSA (Calbiochem, 126593) • Cell Extraction Buffer (Invitrogen FNN0011) • Protease inhibitor cocktail (Sigma P-2714) • PMSF 0.3M stock in DMSO (Sigma P7626) • Antibody—rabbit pMCM2 Ser40 (Abeam, AB133243) • Antibody—goat MCM2 (Bethyl #A300-122A) • Antibody—goat Anti Rabbit IgG HRP (Thermo, 31462) • SuperSignal ELISA Pico Chemiluminescent Substrate (Perbio Science UK Ltd 37069) • 10×PBS (Growcells, MRGF-6236) • Triton X100 (Sigma, P-T8787) • DMSO (Fisher, D128-1) • 2-Propanol (J. T. Baker, 9095-03) Method • Seed 1×10^6 HCT116 cells into each of two 175 cm^2 flask containing 30 mL Cell Growth Media and incubate at 37° C., 5% CO2 for 3 days. • Harvest the cells from one T175 cm^2 flask and count. • Dilute with Cell Growth Media to a cell density of 2×10^5. Dispense 100 μL to each well (20,000 HCT116 cells/well) of TC treated 96-well plate(s). • Allow cells to settle overnight in incubator set at 37° C. and 5% CO2. • Cell treatment: Transfer 0.25 μL/well from the compound plate to the wells of the cell plate(s). This is a 1:400 dilution of compound in the assay. • Once all cells are treated place the cells back to the incubator and incubate for 18 hours. • Dilute the capture antibody (total MCM2 #A300-122A) 1 in 250 in the required volume of PBS (5 mL per assay plate, plus 5 mL for dead volume) and add 50 μL to each well of a Hybond plate except wells A12 & B12. Seal the plate and incubate at room temperature fora minimum of 2 hours. • Defrost aliquot of Invitrogen Cell Extraction Buffer (FNN0011) on ice and supplement with appropriate volume of both Sigma protease inhibitor cocktail (P-2714) and PMSF (final cone 1 mM from a 1 M stock in DMSO). • After the 6 hour or 18 hour cell treatment time, tap out the media from the assay plates and place them in the −70° C. freezer for at least 5 minutes. • Flick out the remaining liquid in the previously prepared capture Ab plate(s) and add 200 μL 2% BSA per well. Incubate for 1 hour at room temperature. • Remove plates from freezer and add 20 μL of ice cold complete lysis buffer. Incubate cells for 30 minutes at 4° C. • Add 30 μL per well 2% BSA • At the end of the 1 hour incubation, wash the Capture/ELISA plate(s) with Wash Buffer on the BioTek plate washer. • Transfer 40 μL per well of the lysis plate(s) to the same wells in the Capture/ELISA plate. Incubate cells overnight at 4° C. • At the end of the overnight incubation, wash the ELISA plate(s) with Wash Buffer on BioTek plate washer. • Prepare Detection Antibody Buffer and dispense 50 μL to all wells of ELISA plate(s) except wells G1 & H1. Cover plate and incubate at room temperature for 2 hours with gentle shaking. • At the end of the 2 hour incubation, wash the ELISA plate(s) with Wash Buffer on the BioTek plate washer. • Prepare the Conjugated Antibody Buffer and dispense 50 μL to all wells of ELISA plate(s). • Cover the plate and incubate at room temperature for 1 hour with gentle shaking. • At the end of the 1 hour incubation, wash the ELISA plate(s) with Wash Buffer on the BioTek plate washer. • Prepare Substrate Buffer and dispense 50 μL to all wells of ELISA plate(s). • Incubate for a minimum of 10 minutes and read plates on the EnVision 2100 Multilabel Reader (Mirror: Luminescence (404) & Luminescence 700 (212); Measurement Height: 6.5 mm; Measurement Time: 0.2 s). Method 3

For assay [2], the target named is T1, Cdc7. Put plainly: Cdc7 cell pharmacodynamics assay Method 3: pS53MCM2 levels in SW48 cells. It counts as cell-based. On the set-up: endogenous in cells; host or cells: SW48. The settings on record: 6 hours treatment, read-out: Biomarker Method 3 (pEC50) (converted). The source says:
This protocol describes a method to investigate the inhibition of Cdc7 activity by measuring pS53MCM2 levels in cells, after treatment with compounds.
• SW48 cells • RPMI 1640 (Sigma, R5886) • 10% FCS (Sera Laboratories International Ltd, EU000F Batch: 108005) • 100× L-Glutamine (Invitrogen, 25030-024) • D-Glucose Solution (10%) (Sigma, G8644) • HEPES Buffer Solution (Sigma, 83264) • Sodium Pyruvate (Sigma, S8636) • PBS (Fisger, BP399-4) • Trypsin/EDTA (Invitrogen 25300-054) • 2% BSA in PBS • Cell Extraction Buffer (Invitrogen FNN0011) • Protease inhibitor cocktail (Sigma P-2714) • PMSF 0.3M stock in DMSO (Sigma P7626) • Antibody—rabbit pMCM2 Ser53 (Bethyl #A300-756A) • Antibody—goat MCM2 (Bethyl #A300-122A) • Antibody—goat Anti Rabbit IgG HRP (Perbio Science UK Ltd 31462) • SuperSignal ELISA Pico Chemiluminescent Substrate (Perbio Science UK Ltd 37070) Method • Plate 30,000 SW48 cells per well in standard TC treated 96 well plate in 100 μL complete RPMI 1640 medium. • Allow cells to settle overnight in incubator set at 37° C. and 5% CO2. • Cell treatment: prepare a 384 well plate containing 80 μl PBS/well. The PBS should be at room temperature—to be referred to as intermediate plate. Transfer 2 μL of compound from mother plate to intermediate (daughter plate) 1:40 dilution, then 5 μL intermediate to cell (daughter) plate. • Once all cells are treated place the cells back to the incubator and incubate for 6 hours. • Dilute the capture antibody (total MCM2 #A300-122A) 1 in 250 in the required volume of PBS (5 mL per assay plate, plus 5 mL for dead volume) and add 50 μL to each well of a Hybond plate. Seal the plate and incubate at room temperature for a minimum of 2 hours. • Defrost aliquot of Invitrogen Cell Extraction Buffer (FNN0011) on ice and supplement with appropriate volume of both Sigma protease inhibitor cocktail (P-2714) and PMSF (final cone 1 mM from a 1 M stock in DMSO). • After the 6 hour cell treatment time, tap out the media from the assay plates and place them in the −80° C. freezer for at least 5 minutes. • Remove plates from freezer and add 20 μL of ice cold complete lysis buffer, with the multidrop. Incubate cells for 30 minutes at 4° C. • Add 80 μL per well 2% BSA. • Flick out the remaining liquid from the capture plate and transfer 80 μL from the lysis plate to the same wells in the capture/ELISA plate, using the Biomek. Cover with plate seal and incubate plates overnight at 4° C. • Wash plates with PBS, remove any residual remaining liquid and add 50 μL per well of pMCM2 Ser53 antibody (#A300-756A) diluted 1 in 100 in 2% BSA. Cover plate and incubate at room temperature for 2 hours with gentle shaking. • Wash plates with PBS, remove any residual remaining liquid and Incubate with 50 μL goat anti rabbit antibody (1 in 800 dilution in 2% BSA), for 1 hour at room temperature. • Wash plates with PBS, remove any residual remaining liquid and add 50 μL mixed SuperSignal Pico substrate. • Incubate each plate for 5 minutes at room temperature shielding the plates from direct light (with a cover plate). Read plates with the luminescent detection. Results

T1 sequence (O00311 whole entry): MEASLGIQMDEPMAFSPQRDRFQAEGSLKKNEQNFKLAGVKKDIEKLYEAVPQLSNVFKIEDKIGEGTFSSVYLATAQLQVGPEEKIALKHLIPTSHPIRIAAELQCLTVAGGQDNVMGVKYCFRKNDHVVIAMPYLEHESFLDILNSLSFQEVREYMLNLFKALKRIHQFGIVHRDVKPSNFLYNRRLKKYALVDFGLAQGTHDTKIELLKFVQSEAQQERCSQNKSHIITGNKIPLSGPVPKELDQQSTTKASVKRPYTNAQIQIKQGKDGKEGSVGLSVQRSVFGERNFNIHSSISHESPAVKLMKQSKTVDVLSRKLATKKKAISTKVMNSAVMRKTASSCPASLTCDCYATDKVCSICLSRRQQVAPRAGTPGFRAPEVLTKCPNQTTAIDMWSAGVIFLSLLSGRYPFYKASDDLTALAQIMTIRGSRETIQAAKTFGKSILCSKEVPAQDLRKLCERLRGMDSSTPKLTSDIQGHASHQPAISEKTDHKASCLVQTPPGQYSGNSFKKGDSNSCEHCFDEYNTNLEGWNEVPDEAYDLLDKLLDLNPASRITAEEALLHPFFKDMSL
T1 sequence (Q9UBU7 whole entry partner): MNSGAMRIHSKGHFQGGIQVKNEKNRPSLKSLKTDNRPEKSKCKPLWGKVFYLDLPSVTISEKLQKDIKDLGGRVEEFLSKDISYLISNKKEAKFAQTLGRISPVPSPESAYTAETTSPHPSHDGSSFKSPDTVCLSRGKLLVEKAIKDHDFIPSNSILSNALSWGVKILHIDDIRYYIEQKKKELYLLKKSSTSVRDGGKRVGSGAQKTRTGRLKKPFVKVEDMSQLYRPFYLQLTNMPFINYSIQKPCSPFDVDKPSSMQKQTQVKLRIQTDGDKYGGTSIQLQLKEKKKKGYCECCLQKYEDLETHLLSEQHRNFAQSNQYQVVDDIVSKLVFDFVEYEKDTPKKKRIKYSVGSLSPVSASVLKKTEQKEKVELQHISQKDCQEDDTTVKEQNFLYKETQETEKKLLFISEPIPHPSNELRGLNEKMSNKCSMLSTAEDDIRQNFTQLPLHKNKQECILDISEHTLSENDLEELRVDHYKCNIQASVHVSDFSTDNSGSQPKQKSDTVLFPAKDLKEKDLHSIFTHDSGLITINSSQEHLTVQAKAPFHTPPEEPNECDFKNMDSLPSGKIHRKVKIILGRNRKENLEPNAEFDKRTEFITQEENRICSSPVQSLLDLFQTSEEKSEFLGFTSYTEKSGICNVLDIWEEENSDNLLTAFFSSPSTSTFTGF
Chain of Cdc7/Dbf4 (O00311 whole entry): as the sequence (O00311 whole entry) above
Chain of Cdc7/Dbf4 (Q9UBU7 whole entry partner): as the sequence (Q9UBU7 whole entry partner) above

Turning to `O=c1[nH]c(-c2cn[nH]c2C(F)(F)F)nc(N2CCNCC(F)(F)C2)c1Cl` [Compound 45, 5-chloro-4-(6,6-difluoro-1,4-diazepan-1-yl)-2-[5-(trifluoromethyl)-1H-pyrazol-4-yl]-1H-pyrimidin-6-one], the IC50 on Cdc7/Dbf4 is 1.95 nM. For the same compound, the figures for the EC50 at Cdc7 [1] and at Cdc7 [2] were 44.7 nM and 1170 nM, respectively.
Take `O=c1[nH]c(-c2cn[nH]c2C(F)(F)F)nc(N2CCOCC2)c1Cl` [Compound 47, 5-chloro-4-morpholino-2-[5-(trifluoromethyl)-1H-pyrazol-4-yl]-1H-pyrimidin-6-one]: the IC50 at Cdc7/Dbf4 was 0.776 nM. In addition, the EC50 on Cdc7 [1] is 38 nM; at Cdc7 [2], 1170 nM.
For `O=c1[nH]c(-c2c[nH]c3ncccc23)nc(N2CCNCC(F)(F)C2)c1Cl` [Compound 52, 5-chloro-4-(6,6-difluoro-1,4-diazepan-1-yl)-2-(1H-pyrrolo[2,3-b]pyridin-3-yl)-1H-pyrimidin-6-one] the same measures were 7.08 nM, 851 nM and 5750 nM.
On to `C[C@@H]1COCCN1c1nc(-c2c[nH]c3ncccc23)[nH]c(=O)c1Cl` [Compound 53, 5-chloro-4-[(3R)-3-methylmorpholin-4-yl]-2-(1H-pyrrolo[2,3-b]pyridin-3-yl)-1H-pyrimidin-6-one], for which the IC50 at Cdc7/Dbf4 was 1.29 nM. Besides, the EC50 was 33.1 nM on Cdc7 [1] and 955 nM on Cdc7 [2].
